The numbers were not newly measured in patent US8415449B2, “Bioresorbable polymers synthesized from monomer analogs of natural metabolites” (Rutgers, The State University of New Jersey, priority 2009, dated 2013), which cites them from elsewhere.

For the data set the following is noted: as part of the clinical evaluation of the sebacic acid anhydride copolymer.

As for `O=C(O)CCCCCCCCC(=O)O` [sebacic acid], the toxicity finding result is recorded as “nontoxic”.
